# From patent publication US10966912B2, “Medicament” (SYMRISE AG, priority 2016, dated 2021)
# Tests used:
# Format in all cases: cell-based
# [1] = tested on: Human epidermal melanoma cells A375; test: Visible light induced hyperpigmentation in vitro; settings: for Inhibition vs visible light induced / melanin: visible light 480 J/cm2, A375 cells; for melanin: treated 48 h before and after irradiation
# Experimental: Human epidermal melanoma cells A375 were cultured in 6-well plates. The cells were exposed to visible light (480 J/cm2) with Hydrosun 750 equipped with KG1 filter. 48 h prior to and past to the irradiation the cells were treated with test compounds in non-cytotoxic concentrations. Melanocytes were lysed in a solution of NaOH. Melanin was quantified by measurement of absorbance at 405 nm and calculation based on a melanin standard curve.
# [2] = tested on: Human epidermal melanoma cells A375; test: Basal melanin formation in vitro; settings: for melanin: basal
# [3] = tested on: ex vivo human skin explants; test: Melanin formation after visible light irradiation on ex vivo human skin; settings: visible light 480 J/cm2; for Inhibition vs Placebo: ex vivo human skin; for % of melanin: topical on skin explant phototype IV, Fontana-Masson stain, image analysis
# Experimental: The below formulations were applied on ex vivo human skin explants from abdominal surgery of a donor with phototype IV (Fitzpatrick scale). 48 h after the formulations were removed with a cotton pad. Skin explants were exposed to visible light (480 J/cm2) with Hydrosun 750 equipped with KG1 filter. Formulations were reapplied afterwards. 48 h later skin sections were prepared and melanin was stained by Fontana-Masson stain. Quantification of melanin was done by image analysis.
structure (smiles),measurement,setting,value
NCCC(=O)N[C@@H](Cc1cnc[nH]1)C(=O)O [L-carnosine],Inhibition vs visible light induced,[1]; 0.001% L-carnosine,110%
same,melanin,[1]; 0.001% L-carnosine,0.5601 µg
same,Inhibition vs visible light induced,[1]; 0.00316% L-carnosine,113%
same,melanin,[1]; 0.00316% L-carnosine,0.5478 µg
same,Inhibition vs visible light induced,[1]; 0.01% L-carnosine,81%
same,melanin,[1]; 0.01% L-carnosine,0.6594 µg
same,Inhibition vs visible light induced,[1]; 0.0316% L-carnosine,90%
same,melanin,[1]; 0.0316% L-carnosine,0.6296 µg
same,visible light induced hyperpigmentation,[1]; A375 cells,inhibits significantly
same,effect on basal melanin formation,[2],no effect
same,melanin,[2]; 0.001% L-carnosine,0.6845 µg
same,melanin,[2]; 0.00316% L-carnosine,0.6186 µg
same,Inhibition vs Placebo,[3]; 0.05% L-carnosine (formulation C),91.1%
same,% of melanin,"[3]; 0.05% L-carnosine (formulation C, Table 3)",35.74 ± 2.6%
same,Inhibition vs Placebo,[3]; 0.2% L-carnosine (formulation B),92.2%
same,% of melanin,"[3]; 0.2% L-carnosine (formulation B, Table 3)",35.44 ± 2.3%
